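A five-concentration, 48-hour dose response in 96-well plates underlies each endpoint, interpolated linearly between surrounding concentrations. Abbreviation: GI50, concentration required for 50% inhibition of growth.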 Activity calls are given as the source filed them. Cut-off read from the data, not from the text of the source: active = GI50 up to about 1.1 µM and inactive = higher.
How the values were obtained:
Assay in all cases: inhibition of tumour cell growth, NCI panel, 48 h
[1] = system: NCI-H460
[2] = system: OVCAR-4
[3] = system: TK-10
[4] = system: UO-31
[5] = system: SW-620
[6] = system: EKVX
[7] = system: UACC-62
[8] = system: SF-295
[9] = system: SK-OV-3
[10] = system: RXF 393
[11] = system: M14
[12] = system: HT-29
[13] = system: NCI-H522
[14] = system: COLO 205
[15] = system: SK-MEL-2
[16] = system: SK-MEL-5

Measured: GI50

Nc1nc(-c2ccccc2)cc(-c2ccccc2O)n1
inactive: [1] 36.2 µM | [2] 51.6 µM | [3] 46.7 µM | [4] 8.15 µM | [5] 41.1 µM | [6] 23.7 µM | [7] 59.2 µM | [8] 71.6 µM | [9] 85.9 µM | [10] 27.3 µM | [11] 81.1 µM | [12] 33.4 µM | [13] 22.9 µM | [14] 43.3 µM

CC1CCCP(=O)(c2ccccc2)CCC1 (configuration not stated)
inactive: [1] > 100 µM | [2] > 100 µM | [3] > 100 µM | [4] > 100 µM | [5] > 100 µM | [6] > 100 µM | [15] > 100 µM | [7] > 100 µM | [8] > 100 µM | [9] > 100 µM | [16] > 100 µM | [10] > 100 µM | [11] > 100 µM | [12] > 100 µM | [14] > 100 µM

O=C(Cc1nc2ccccc2s1)C(=O)Nc1cccc(Cl)c1
inactive: [2] > 100 µM | [3] > 100 µM | [4] > 100 µM | [5] > 100 µM | [6] > 100 µM | [15] > 100 µM | [7] > 100 µM | [8] > 100 µM | [9] > 100 µM | [16] > 100 µM | [10] > 100 µM | [11] > 100 µM | [12] > 100 µM | [13] > 100 µM | [14] > 100 µM

Cc1cccc(C)c1NC(=O)C1C(=O)N(c2c(C)cccc2C)C(=O)/C1=N\N (configuration not stated)
inactive: [2] > 100 µM | [3] > 100 µM | [4] > 100 µM | [5] > 100 µM | [6] > 100 µM | [15] > 100 µM | [7] > 100 µM | [8] > 100 µM | [9] > 100 µM | [16] > 100 µM | [10] > 100 µM | [11] > 100 µM | [12] > 100 µM | [13] > 100 µM | [14] > 100 µM

COc1cccc(NC(=O)CC(=O)N2NC(C)C(/N=N/c3cccc(C(=O)O)c3)C2=O)c1 (configuration not stated)
inactive: [1] > 100 µM | [2] > 100 µM | [3] > 100 µM | [4] > 100 µM | [5] > 100 µM | [6] > 100 µM | [15] > 100 µM | [7] > 100 µM | [8] > 100 µM | [9] > 100 µM | [16] > 100 µM | [11] > 100 µM | [12] > 100 µM | [13] > 100 µM | [14] > 100 µM

Cc1nc2sccn2c1C(=O)NC(=O)Nc1ccc(Cl)cc1
inactive: [1] > 100 µM | [2] > 100 µM | [3] 30.9 µM | [4] 59.2 µM | [5] > 100 µM | [6] > 100 µM | [15] > 100 µM | [7] > 100 µM | [8] 70.8 µM | [16] > 100 µM | [10] 37.8 µM | [11] > 100 µM | [12] > 100 µM | [13] 57 µM | [14] > 100 µM

N=C(c1ccccc1)N(c1ccccc1)c1ccccc1
inactive: [1] 87.5 µM | [2] 88.9 µM | [3] > 100 µM | [4] 68.5 µM | [5] > 100 µM | [6] 93.3 µM | [15] > 100 µM | [8] > 100 µM | [10] 30.5 µM | [11] > 100 µM | [12] 42.5 µM | [13] 73.3 µM | [14] 19.2 µM

CCOC(=O)/C(C(C)=O)=C1/N[C@H](C(=O)OCC)CS1
inactive: [1] > 100 µM | [2] > 100 µM | [4] > 100 µM | [5] > 100 µM | [6] > 100 µM | [15] > 100 µM | [7] > 100 µM | [8] > 100 µM | [16] > 100 µM | [10] > 100 µM | [11] > 100 µM | [12] > 100 µM | [13] > 100 µM | [14] > 100 µM

CC(=O)O[C@@]1(C)[C@@H](C)C(=O)O[C@@H]2CCN3CC=C(COC(=O)[C@]1(C)O)[C@H]23
inactive: [1] > 100 µM | [2] > 100 µM | [3] > 100 µM | [4] > 100 µM | [5] > 100 µM | [15] > 100 µM | [7] > 100 µM | [8] > 10 µM | [16] > 100 µM | [11] > 100 µM | [12] > 100 µM | [13] > 100 µM | [14] > 100 µM

CC1(C)N=C(c2ccccn2)C(c2ccccn2)=NC1(C)C
inactive: [1] > 100 µM | [2] > 100 µM | [4] > 100 µM | [5] > 100 µM | [6] > 100 µM | [15] > 100 µM | [7] > 100 µM | [8] > 100 µM | [16] > 100 µM | [10] > 100 µM | [11] > 100 µM | [12] > 100 µM | [14] > 100 µM

COc1ccccc1NC(=O)CC(=O)N1N=C(c2ccccc2)C(/N=N/c2ccc(Cl)cc2)C1=O (configuration not stated)
inactive: [1] 34.8 µM | [2] 25.2 µM | [3] 27.7 µM | [4] 18.2 µM | [5] 45.6 µM | [6] 37.2 µM | [15] 69.7 µM | [7] 25.7 µM | [8] 30.5 µM | [9] 21.9 µM | [16] 14.6 µM | [11] 59.8 µM | [12] 42.7 µM | [13] 32.1 µM | [14] 71.4 µM

NC(=O)C(c1ccccc1)N1CCOCC1 (configuration not stated)
inactive: [1] > 100 µM | [2] > 100 µM | [3] > 100 µM | [4] > 100 µM | [5] > 100 µM | [15] > 100 µM | [7] > 100 µM | [8] > 100 µM | [9] > 100 µM | [16] > 100 µM | [10] > 100 µM | [11] > 100 µM | [12] > 100 µM | [13] > 100 µM | [14] > 100 µM

COC(=O)[C@]12CCC(C)[C@H](C)[C@H]1C1=CCC3[C@@]4(C)CC[C@H](OC(C)=O)C(C)(C)C4CC[C@@]3(C)C1(C)C(O)C2 (some centres not stated)
inactive: [1] > 100 µM | [2] > 100 µM | [3] > 100 µM | [4] > 100 µM | [5] > 100 µM | [6] > 100 µM | [15] > 100 µM | [7] > 100 µM | [8] > 100 µM | [9] > 100 µM | [16] > 100 µM | [11] > 100 µM | [12] > 100 µM | [13] > 100 µM | [14] > 100 µM

— ChEMBL document CHEMBL1201862, “PubChem BioAssay data set” (2004)
